Measured values reported in ChEMBL document CHEMBL1123199, “Synthesis and structure-activity relationships of naftifine-related allylamine antimycotics” (1986).
Converted amounts (≈) assume the structure as drawn.

Assays:
[1] = test system: Aspergillus fumigatus; assay: Antifungal activity measured against Aspergillus fumigatus; assay type: functional
[2] = test system: Candida parapsilosis; assay: Antifungal activity against Candida parapsilosis.; assay type: functional; conditions: Lodderomyces parapsilosis
[3] = test system: Epidermophyton floccosum; assay: Antifungal activity against Epidermophyton floccosum.; assay type: functional
[4] = test system: Microsporum canis; assay: Antifungal activity against Microsporum canis; assay type: functional
[5] = test system: Sporothrix schenckii; assay: Antifungal activity measured against Sporothrix schenck ii.; assay type: functional
[6] = test system: Trichophyton benhamiae; assay: Antifungal activity measured against Trichophyton mentagrophytes; assay type: functional, Arthroderma benhamiae
[7] = test system: Cavia porcellus; assay: In vivo antifungal activity by topical treatment of guinea pig dermatophytosis caused by Trichophyton mentagrophytes at a dose of 0.1%; assay type: functional
[8] = test system: Cavia porcellus; assay: In vivo antifungal activity by topical treatment of guinea pig dermatophytosis caused by Trichophyton mentagrophytes at a dose of 0.5%; assay type: functional
[9] = test system: Cavia porcellus; assay: In vivo antifungal activity by topical treatment of guinea pig dermatophytosis caused by Trichophyton mentagrophytes at a dose of 2%; assay type: functional

Compound	MIC [1] [µg/mL]	MIC [2] [µg/mL]	MIC [3] [µg/mL]	MIC [4] [µg/mL]	MIC [5] [µg/mL]	MIC [6] [µg/mL]	Activity [7] [%]	Activity [8] [%]	Activity [9] [%]
CN(C/C=C/c1ccccc1)Cc1coc2ccccc12	> 100	25 (≈ 90.1 µM)	12.5 (≈ 45.1 µM)	1.6 (≈ 5.77 µM)	100 (≈ 361 µM)	1.6 (≈ 5.77 µM)	–	–	–
C(=C\c1ccccc1)/CSCc1cccc2ccccc12	> 100	> 100	> 100	> 100	> 100	25 (≈ 86.1 µM)	–	–	–
CN(C/C=C/c1ccccc1)Cc1c2c(cc3c1CCC3)CCC2	> 100	> 100	3.1 (≈ 9.76 µM)	1.6 (≈ 5.04 µM)	6.25 (≈ 19.7 µM)	1.6 (≈ 5.04 µM)	–	–	–
C=CCN(C)Cc1cccc2ccccc12	> 100	–	> 100	> 100	> 100	> 100	–	–	–
C/C(=C\c1ccccc1)CN(C)Cc1cccc2ccccc12	> 100	> 100	100 (≈ 332 µM)	100 (≈ 332 µM)	100 (≈ 332 µM)	12.5 (≈ 41.5 µM)	–	–	–
CN(CCc1ccccc1)Cc1cccc2ccccc12	> 100	> 100	100 (≈ 363 µM)	100 (≈ 363 µM)	> 100	12.5 (≈ 45.4 µM)	–	–	–
CN(C/C=C/c1ccccc1)Cc1c2ccccc2cc2ccccc12	100 (≈ 296 µM)	100 (≈ 296 µM)	0.4 (≈ 1.19 µM)	0.8 (≈ 2.37 µM)	50 (≈ 148 µM)	0.8 (≈ 2.37 µM)	0	0	38
C(=C\c1ccccc1)/CN(Cc1cccc2ccccc12)c1ccccc1	> 100	> 100	> 100	> 100	50 (≈ 143 µM)	> 100	–	–	–
C(=C\c1ccccc1)/CN(Cc1cccc2ccccc12)C1CCCCC1	> 100	> 100	> 100	> 100	> 100	> 100	–	–	–
C=CCN(C/C=C/c1ccccc1)Cc1cccc2ccccc12	100 (≈ 319 µM)	> 100	3.1 (≈ 9.89 µM)	< 1.6	6.25 (≈ 19.9 µM)	< 1.6	–	–	–
O=S(=O)(C/C=C/c1ccccc1)Cc1cccc2ccccc12	> 100	> 100	> 100	> 100	> 100	> 100	–	–	–
CN(C/C=C/c1ccccc1)CC1=CCCc2ccccc21	> 100	25 (≈ 86.4 µM)	≤ 1.6	≤ 1.6	12.5 (≈ 43.2 µM)	≤ 1.6	–	–	–
CN(C/C=C/C#N)Cc1cccc2ccccc12	> 100	> 100	100 (≈ 423 µM)	100 (≈ 423 µM)	> 100	100 (≈ 423 µM)	–	–	–
COc1ccc(/C=C/CN(C)Cc2cccc3ccccc23)cc1	> 100	> 100	50 (≈ 158 µM)	50 (≈ 158 µM)	> 100	6.2 (≈ 19.5 µM)	–	–	–
CN(Cc1cccc2ccccc12)CC1CC1c1ccccc1 (configuration not stated)	> 100	> 100	25 (≈ 82.9 µM)	12.5 (≈ 41.5 µM)	100 (≈ 332 µM)	12.5 (≈ 41.5 µM)	–	–	–
[O-][S+](C/C=C/c1ccccc1)Cc1cccc2ccccc12 (configuration not stated)	> 100	> 100	> 100	> 100	> 100	> 100	–	–	–
CN(C/C=C/C1CCCCC1)Cc1cccc2ccccc12	> 100	> 100	12.5 (≈ 42.6 µM)	12.5 (≈ 42.6 µM)	> 100	1.6 (≈ 5.45 µM)	–	–	–
C[N+](C)(C/C=C/c1ccccc1)Cc1cccc2ccccc12.[I-]	> 100	> 100	> 100	> 100	> 100	25	–	–	–
CN(CCC(O)c1ccccc1)Cc1cccc2ccccc12 (configuration not stated)	> 100	> 100	> 100	> 100	> 100	> 100	–	–	–
CN(CCC(=O)c1ccccc1)Cc1cccc2ccccc12	> 100	> 100	6.2 (≈ 20.4 µM)	6.2 (≈ 20.4 µM)	50 (≈ 165 µM)	6.2 (≈ 20.4 µM)	–	–	–
COc1ccc2ccccc2c1CN(C)C/C=C/c1ccccc1	> 100	> 100	50 (≈ 158 µM)	100 (≈ 315 µM)	> 100	50 (≈ 158 µM)	–	–	–
CN(C/C=C/c1ccccc1)Cc1cccc2sccc12	12.5 (≈ 42.6 µM)	1.6 (≈ 5.45 µM)	0.1 (≈ 0.341 µM)	0.1 (≈ 0.341 µM)	1.6 (≈ 5.45 µM)	0.1 (≈ 0.341 µM)	–	75	100
CN(CC(=O)c1ccccc1)Cc1cccc2ccccc12	> 100	> 100	12.5 (≈ 43.2 µM)	6.2 (≈ 21.4 µM)	> 100	3.1 (≈ 10.7 µM)	–	–	–
